Laboratory results published in EPA's ToxRefDB 2.

Key:
rat [1] = details: Multigenerational reproductive toxicity study, sprague dawley, Oral, Feed, dose end: 2 generation
dog [2] = details: Chronic toxicity, beagle, Oral, Capsule, dose end: 53 week, group: systemic
dog [3] = details: Subchronic oral toxicity in nonrodent, beagle, Capsule, dose end: 13 week, group: systemic
mouse [4] = details: Carcinogenicity, b6c3f1, Oral, Feed, dose end: 2 year, group: systemic
rat [5] = details: Prenatal developmental toxicity study, sprague dawley, Oral, Gavage/Intubation, dose end: 15 GD, group: maternal
rat [6] = details: Subchronic oral toxicity in rodents, fischer, Feed, dose end: 3 month, group: systemic, systemic / organ weight / liver / absolute + systemic / organ weight / liver / relative to body weight + systemic / pathology microscopic / …
rat [7] = details: Subchronic oral toxicity in rodents, sprague dawley, Feed, dose end: 90 day, group: systemic, systemic / in life observation / clinical signs / altered breathing rate + systemic / in life observation / food consumption / food …
dog [8] = details: Subchronic oral toxicity in nonrodent, beagle, Feed, dose end: 90 day, group: systemic, systemic / hematology / hematocrit (hct) / hematocrit (hct) + systemic / hematology / hemoglobin (hgb) / hemoglobin (hgb) + systemic / …
mouse [9] = details: Carcinogenicity, other, Oral, Gavage/Intubation, dose end: 6 month, group: systemic
mouse [10] = details: Carcinogenicity, other, Oral, Gavage/Intubation, dose end: 6 month, group: systemic; remark: listed apart in the source
mouse [11] = details: Carcinogenicity; other; Oral; Gavage/Intubation; dose end: 6 month; group: systemic; systemic / in life observation / clinical signs / abnormal gait + systemic / in life observation / clinical signs / ataxia + systemic / in …
mouse [12] = details: Carcinogenicity, cd1, Oral, Gavage/Intubation, dose end: 16 PND, group: systemic
rat [13] = details: Combined chronic toxicity/carcinogenicity, wistar, Oral, Feed, dose end: 24 month, group: systemic
mouse [14] = details: Carcinogenicity, b6c3f1, Inhalation, Whole-Body, dose end: 105 week, group: systemic
rat [15] = details: Subchronic inhalation toxicity, fischer, Whole-Body, dose end: 14 week, group: systemic
rat [16] = details: Carcinogenicity, fischer, Inhalation, Whole-Body, dose end: 105 week, group: systemic
mouse [17] = details: Subchronic inhalation toxicity, b6c3f1, Whole-Body, dose end: 14 week, group: systemic
[18] = group: offspring, systemic / in life observation / body weight / offspring (pup) weight
[19] = group: offspring, systemic / in life observation / body weight / offspring (pup) weight + developmental / offspring survival late / viability index / …
[20] = group: parental, systemic / organ weight / liver / absolute + systemic / organ weight / liver / relative to body weight + systemic / pathology microscopic / …
[21] = group: reproductive, reproductive / offspring survival early / litter size / litter size
[22] = systemic / pathology microscopic / liver / pigmentation + systemic / clinical chemistry / alanine aminotransferase (alt/sgpt) / alanine …
[23] = systemic / pathology microscopic / spleen / pigmentation
[24] = systemic / pathology microscopic / spleen / pigmentation + systemic / in life observation / clinical signs / emesis + systemic / pathology …
[25] = systemic / pathology microscopic / liver / hyperplasia + systemic / organ weight / liver / absolute + systemic / organ weight / liver / …
[26] = systemic / in life observation / body weight / body weight + systemic / in life observation / body weight / body weight gain + systemic / in…
[27] = systemic / clinical chemistry / alanine aminotransferase (alt/sgpt) / alanine aminotransferase (alt/sgpt) + systemic / clinical chemistry / …
[28] = systemic / clinical chemistry / cholesterol / cholesterol + systemic / clinical chemistry / cholesterol / cholesterol, direct ldl + systemic…
[29] = systemic / in life observation / clinical signs / body temperature + systemic / in life observation / clinical signs / dehydration + …
[30] = systemic / pathology microscopic / liver / hypertrophy
[31] = systemic / in life observation / body weight / body weight gain + systemic / in life observation / clinical signs / dehydration + systemic…
[32] = systemic / organ weight / heart / absolute
[33] = systemic / in life observation / body weight / body weight + systemic / pathology microscopic / eye / degeneration + systemic / pathology …
[34] = systemic / in life observation / body weight / body weight + systemic / pathology microscopic / nose / degeneration + systemic / pathology …
[35] = systemic / in life observation / body weight / body weight + systemic / in life observation / body weight / body weight gain + systemic / …
[36] = systemic / pathology microscopic / nose / metaplasia
[37] = systemic / pathology microscopic / kidney / hyperplasia + systemic / pathology microscopic / nose / atrophy + systemic / pathology …
[38] = systemic / pathology microscopic / nose / atrophy + systemic / pathology microscopic / nose / hyperplasia + systemic / pathology microscopic…
[39] = systemic / organ weight / heart / absolute + systemic / pathology microscopic / nose / degeneration + systemic / pathology microscopic / …
[40] = systemic / pathology microscopic / nose / hyaline droplet + systemic / pathology microscopic / nose / degeneration

**Q.** What does the source list for `CCCCN(CC)c1c([N+](=O)[O-])cc(C(F)(F)F)cc1[N+](=O)[O-]` [Benfluralin]?
**A.** LEL (rat [1]; [18]): 74.4 mg/kg/day; LOAEL (rat [1]; [18]): 74.4 mg/kg/day; NEL (rat [1]; [19]): 7.3 mg/kg/day; NOAEL (rat [1]; [19]): 7.3 mg/kg/day; LEL (rat [1]; [20]): 68.1 mg/kg/day; LOAEL (rat [1]; [20]): 68.1 mg/kg/day; NEL (rat [1]; [20]): 7.2 mg/kg/day; NOAEL (rat [1]; [20]): 7.2 mg/kg/day; LEL (rat [1]; [21]): 401 mg/kg/day; LOAEL (rat [1]; [21]): 401 mg/kg/day; NEL (rat [1]; [21]): 74.4 mg/kg/day; NOAEL (rat [1]; [21]): 74.4 mg/kg/day; LOAEL (dog [2]; systemic / pathology microscopic / liver / pigmentation): 25 mg/kg/day; LEL (dog [2]; [22]): 25 mg/kg/day; NEL (dog [2]; [22]): 5 mg/kg/day; NOAEL (dog [2]; [22]): 5 mg/kg/day; LEL (dog [3]; [23]): 25 mg/kg/day; LOAEL (dog [3]; [23]): 25 mg/kg/day; NEL (dog [3]; [24]): 5 mg/kg/day; NOAEL (dog [3]; [24]): 5 mg/kg/day; LOAEL (mouse [4]; systemic / pathology microscopic / liver / hyperplasia): 185 mg/kg/day; LEL (mouse [4]; [25]): 185 mg/kg/day; NEL (mouse [4]; [25]): 36.4 mg/kg/day; NOAEL (mouse [4]; [25]): 36.4 mg/kg/day; LOAEL (rat [5]; systemic / in life observation / body weight / body weight + systemic / in life observation / body weight / body weight gain): 1000 mg/kg/day; NEL (rat [5]; [26]): 225 mg/kg/day; NOAEL (rat [5]; [26]): 475 mg/kg/day; LEL (rat [5]; systemic / in life observation / body weight / body weight + systemic / in life observation / food consumption / food consumption): 475 mg/kg/day; LEL (rat [6]): 16.8 mg/kg/day; LOAEL (rat [6]): > 522 mg/kg/day; NEL (rat [6]): 3.23 mg/kg/day; NOAEL (rat [6]): ≥ 522 mg/kg/day

**Q.** For `O.O.O.O.O.O.O.O.O.O.[Na+].[Na+].[O-]B1OB2OB([O-])OB(O1)O2` [Borax], which LEL (rat [7]) is on record?
**A.** 770 mg/kg/day

**Q.** And the LOAEL (rat [7])?
**A.** 770 mg/kg/day

**Q.** And the NEL (rat [7])?
**A.** 232 mg/kg/day

**Q.** What about the NOAEL (rat [7]) of the same compound?
**A.** 232 mg/kg/day

**Q.** And the LEL (dog [8])?
**A.** 192 mg/kg/day

**Q.** What about the LOAEL (dog [8]) of the same compound?
**A.** 192 mg/kg/day

**Q.** What about the NEL (dog [8]) of the same compound?
**A.** 22 mg/kg/day

**Q.** And the NOAEL (dog [8])?
**A.** 22 mg/kg/day

**Q.** Which LOAEL (mouse [9]; [27]) does the source give for `CCOC(=O)C(C)(C)Oc1ccc(Cl)cc1` [Clofibrate] here?
**A.** > 250 mg/kg/day

**Q.** What about the NOAEL (mouse [9]; [27]) of the same compound?
**A.** ≥ 250 mg/kg/day

**Q.** What about the LEL (mouse [9]; [28]) of the same compound?
**A.** 50 mg/kg/day

**Q.** And the NEL (mouse [9]; [28])?
**A.** < 50 mg/kg/day

**Q.** And the LOAEL (mouse [10]; [29])?
**A.** > 650 mg/kg/day

**Q.** And the NOAEL (mouse [10]; [29])?
**A.** ≥ 650 mg/kg/day

**Q.** And the LEL (mouse [10]; [30])?
**A.** 50 mg/kg/day

**Q.** What about the NEL (mouse [10]; [30]) of the same compound?
**A.** < 50 mg/kg/day

**Q.** And the LEL (mouse [11])?
**A.** 200 mg/kg/day

**Q.** What about the LOAEL (mouse [11]) of the same compound?
**A.** > 500 mg/kg/day

**Q.** What about the NEL (mouse [11]) of the same compound?
**A.** 50 mg/kg/day

**Q.** And the NOAEL (mouse [11])?
**A.** ≥ 500 mg/kg/day

**Q.** What about the LOAEL (mouse [12]; [31]) of the same compound?
**A.** > 500 mg/kg/day

**Q.** What about the NEL (mouse [12]; [31]) of the same compound?
**A.** 100 mg/kg/day

**Q.** What about the NOAEL (mouse [12]; [31]) of the same compound?
**A.** ≥ 500 mg/kg/day

**Q.** And the LEL (mouse [12]; systemic / in life observation / clinical signs / palpable mass)?
**A.** 250 mg/kg/day

**Q.** `NCCO.O=C(Nc1ccc([N+](=O)[O-])cc1Cl)c1cc(Cl)ccc1O` [Clonitralid] was tested. Which LOAEL (rat [13]; systemic / in life observation / body weight / body weight gain) did it give?
**A.** 410 mg/kg/day

**Q.** And the NOAEL (rat [13]; systemic / in life observation / body weight / body weight gain + systemic / clinical chemistry / alanine aminotransferase (alt/sgpt) / …)?
**A.** 100 mg/kg/day

**Q.** What about the LEL (rat [13]; [32]) of the same compound?
**A.** 20 mg/kg/day

**Q.** And the NEL (rat [13]; [32])?
**A.** < 20 mg/kg/day

**Q.** How did the LOAEL (mouse [14]; [33]) turn out when `OCc1ccco1` [Furfuryl alcohol] was run?
**A.** > 32 ppm

**Q.** And the NOAEL (mouse [14]; [33])?
**A.** ≥ 32 ppm

**Q.** And the LEL (mouse [14]; [34])?
**A.** 2 ppm

**Q.** And the NEL (mouse [14]; [34])?
**A.** < 2 ppm

**Q.** And the LOAEL (rat [15]; [35])?
**A.** > 32 ppm

**Q.** What about the NOAEL (rat [15]; [35]) of the same compound?
**A.** ≥ 32 ppm

**Q.** And the LEL (rat [15]; [36])?
**A.** 2 ppm

**Q.** And the NEL (rat [15]; [36])?
**A.** < 2 ppm

**Q.** What about the LOAEL (rat [16]; [37]) of the same compound?
**A.** > 32 ppm

**Q.** And the NOAEL (rat [16]; [37])?
**A.** ≥ 32 ppm

**Q.** And the LEL (rat [16]; [38])?
**A.** 2 ppm

**Q.** What about the NEL (rat [16]; [38]) of the same compound?
**A.** < 2 ppm

**Q.** And the LOAEL (mouse [17]; [39])?
**A.** > 32 ppm

**Q.** What about the NOAEL (mouse [17]; [39]) of the same compound?
**A.** ≥ 32 ppm

**Q.** What about the LEL (mouse [17]; [40]) of the same compound?
**A.** 2 ppm

**Q.** And the NEL (mouse [17]; [40])?
**A.** < 2 ppm
